≈ marks a conversion by molar mass, not a printed value. Like-named read-outs stand apart in the source and are kept apart here.
Experiments:
Candida albicans = assay: MIC, C. albicans (Table 2); type: cell-based; conditions: read-out: Anti-Microbial Activity MIC, C. a.
Description: (§1) Anti-Microbial Activity of Examples 1-6 (MIC in μg/mL)
(§2) Antimicrobial activity was evaluated to determine minimal inhibitory concentration ("MIC") and Minimal Bactericidal Concentration ("MBC"). The specific biological testing protocol is published R. Kang et al., "J. Agric. Food Chem.," vol. 40 pp. 2328-2330 (1994), the entirety of which is herein incorporated by reference.

[1] = system: Corynebacterium minutissimum; assay: MIC, C. minutissimum (Table 1); type: cell-based; conditions: read-out: Anti-Microbial Activity MIC, C. m.
Description: (§3) The anti-microbial activity of Examples 1-6 were evaluated.
as §1, §2

Steptococcus mutans = assay: MIC, S. mutans (Table 1); type: cell-based; conditions: Streptococcus mutans, read-out: Anti-Microbial Activity MIC, S. m.
Description: as §3, §1, §2

[2] = system: Staphylococcus epidermidis; assay: MIC, S. epidermidis (Table 1); type: cell-based; conditions: read-out: Anti-Microbial Activity MIC, S. e.
Description: as §3, §1, §2

Aspergillus niger = assay: MIC, A. niger (Table 2); type: cell-based; conditions: read-out: Anti-Microbial Activity MIC, A. niger
Description: as §1, §2

Escherichia coli = assay: MIC, E. coli (Table 2); type: cell-based; conditions: read-out: Anti-Microbial Activity MIC, E. c.
Description: as §1, §2

Actinomyces neaslundii = assay: MIC, A. neaslundii (Table 1); type: cell-based; conditions: read-out: Anti-Microbial Activity MIC, A. neasl
Description: as §3, §1, §2

Pseudomonas aeruginosa = assay: MIC, P. aeruginosa (Table 2); type: cell-based; conditions: read-out: Anti-Microbial Activity MIC, P. aerug.
Description: as §1, §2

Staphylococcus aureus = assay: MIC, S. aureus (Table 1); type: cell-based; conditions: read-out: Anti-Microbial Activity MIC, S. a.
Description: as §3, §1, §2

Corynebacterium xerosis = assay: MIC, C. xerosis (Table 1); type: cell-based; conditions: read-out: Anti-Microbial Activity MIC, C. x.
Description: as §3, §1, §2

Propionibacterium acnes = assay: MIC, P. acnes (Table 1); type: cell-based; conditions: Cutibacterium acnes, read-out: Anti-Microbial Activity MIC, P. acnes
Description: as §3, §1, §2

oral bacteria = conditions: N. Didry et al. 1994; cited from earlier work
[3] = system: bacteria involved in upper respiratory tract infections; conditions: N. Didry et al. 1993; cited from earlier work
[4] = C. albicans strain 10231, fungi
[5] = C. minutissimum strain 23348, gram+
[6] = S. epidermidis strain 1228, gram+
[7] = A. neaslundii strain 19039, gram+
[8] = P. aeruginosa strain 15442, gram -

| MIC (Candida albicans; [4]) | MIC [1, 5] | MIC (Steptococcus mutans; S. mutans strain 25175, gram+) | MIC [2, 6] | MIC (Aspergillus niger; A. niger strain 16404, fungi) | MIC (Escherichia coli; E. coli strain 11229, gram -) | MIC (Actinomyces neaslundii; [7]) | MIC (Pseudomonas aeruginosa; [8]) | MIC (Staphylococcus aureus; S. aureus strain 6535, gram+) | MIC (Corynebacterium xerosis; C. xerosis strain 373, gram+) | MIC (Propionibacterium acnes; P. acnes strain 6919, gram+) | Structure (SMILES) | further results |
| --- | --- | --- | --- | --- | --- | --- | --- | --- | --- | --- | --- | --- |
| 125 µg/mL (≈ 657 µM) | 62.5 µg/mL (≈ 328 µM) | 62.5 µg/mL (≈ 328 µM) | 62.5 µg/mL (≈ 328 µM) | 125 µg/mL (≈ 657 µM) | > 1000 µg/mL | 62.5 µg/mL (≈ 328 µM) | > 1000 µg/mL | 62.5 µg/mL (≈ 328 µM) | 62.5 µg/mL (≈ 328 µM) | 62.5 µg/mL (≈ 328 µM) | C=CCc1c(C)ccc(C(C)C)c1O [Example 1a, Ortho Allyl Thymol] |  |
| 125 µg/mL (≈ 657 µM) | 62.5 µg/mL (≈ 328 µM) | 31.2 µg/mL (≈ 164 µM) | 62.5 µg/mL (≈ 328 µM) | 125 µg/mL (≈ 657 µM) | > 1000 µg/mL | 62.5 µg/mL (≈ 328 µM) | > 1000 µg/mL | 62.5 µg/mL (≈ 328 µM) | 62.5 µg/mL (≈ 328 µM) | 31.2 µg/mL (≈ 164 µM) | C=CCc1cc(C(C)C)c(O)cc1C [Example 1b, Para Allyl Thymol] |  |
| 125 µg/mL (≈ 657 µM) | 62.5 µg/mL (≈ 328 µM) | 62.5 µg/mL (≈ 328 µM) | 62.5 µg/mL (≈ 328 µM) | 125 µg/mL (≈ 657 µM) | > 1000 µg/mL | 62.5 µg/mL (≈ 328 µM) | > 1000 µg/mL | 62.5 µg/mL (≈ 328 µM) | 62.5 µg/mL (≈ 328 µM) | 31.2 µg/mL (≈ 164 µM) | C=CCc1c(C(C)C)ccc(C)c1O [Example 2a, Ortho Allyl Carvacrol] |  |
| 125 µg/mL (≈ 657 µM) | 62.5 µg/mL (≈ 328 µM) | 62.5 µg/mL (≈ 328 µM) | 62.5 µg/mL (≈ 328 µM) | 125 µg/mL (≈ 657 µM) |  |  |  | 62.5 µg/mL (≈ 328 µM) | 62.5 µg/mL (≈ 328 µM) | 62.5 µg/mL (≈ 328 µM) | C=CCc1cc(C)c(O)cc1C(C)C [Example 2b, Para Allyl Carvacrol] |  |
| 125 µg/mL (≈ 650 µM) | 62.5 µg/mL (≈ 325 µM) | 31.2 µg/mL (≈ 163 µM) | 62.5 µg/mL (≈ 325 µM) | 125 µg/mL (≈ 650 µM) | > 1000 µg/mL | 62.5 µg/mL (≈ 325 µM) | > 1000 µg/mL | 62.5 µg/mL (≈ 325 µM) | 62.5 µg/mL (≈ 325 µM) | 31.2 µg/mL (≈ 163 µM) | CCCc1c(C)ccc(C(C)C)c1O [Example 3a, Ortho Propyl Thymol] |  |
| 62.5 µg/mL (≈ 325 µM) | 31.2 µg/mL (≈ 163 µM) | 31.2 µg/mL (≈ 163 µM) | 31.2 µg/mL (≈ 163 µM) | 125 µg/mL (≈ 650 µM) | > 1000 µg/mL | 31.2 µg/mL (≈ 163 µM) | > 1000 µg/mL | 31.2 µg/mL (≈ 163 µM) | 31.2 µg/mL (≈ 163 µM) | 31.2 µg/mL (≈ 163 µM) | CCCc1cc(C(C)C)c(O)cc1C [Example 3b, Para Propyl Thymol] |  |
| 62.5 µg/mL (≈ 325 µM) | 31.2 µg/mL (≈ 163 µM) | 31.2 µg/mL (≈ 163 µM) | 31.2 µg/mL (≈ 163 µM) | 125 µg/mL (≈ 650 µM) | > 1000 µg/mL | 31.2 µg/mL (≈ 163 µM) | > 1000 µg/mL | 125 µg/mL (≈ 650 µM) | 31.2 µg/mL (≈ 163 µM) | 31.2 µg/mL (≈ 163 µM) | CCCc1c(C(C)C)ccc(C)c1O [Example 4a, Ortho Propyl Carvacrol] |  |
| 62.5 µg/mL (≈ 325 µM) | ≤ 15.6 µg/mL | ≤ 15.6 µg/mL | 31.2 µg/mL (≈ 163 µM) | 62.5 µg/mL (≈ 325 µM) | > 1000 µg/mL | ≤ 15.6 µg/mL | > 1000 µg/mL | ≤ 15.6 µg/mL | ≤ 15.6 µg/mL | ≤ 15.6 µg/mL | CCCc1cc(C)c(O)cc1C(C)C [Example 4b, Para Propyl Carvacrol] |  |
|  | 31.2 µg/mL (≈ 164 µM) |  | 31.2 µg/mL (≈ 164 µM) |  | > 500 µg/mL |  |  | 31.2 µg/mL (≈ 164 µM) | 31.2 µg/mL (≈ 164 µM) | 15.6 µg/mL (≈ 82 µM) | C=CCc1cc(C(C)(C)C)ccc1O [Example 5, Ortho Allyl Para tert-Butyl Phenol] |  |
|  | 15.6 µg/mL (≈ 81.1 µM) |  | 15.6 µg/mL (≈ 81.1 µM) |  | > 500 µg/mL |  |  | 15.6 µg/mL (≈ 81.1 µM) | 15.6 µg/mL (≈ 81.1 µM) | 7.8 µg/mL (≈ 40.6 µM) | CCCc1cc(C(C)(C)C)ccc1O [Example 6, Ortho Propyl Para tert-Butyl Phenol] |  |
|  |  |  |  |  |  |  |  |  |  |  | Cc1ccc(C(C)C)cc1O [carvacrol, reference compound] | inhibitory activity on several microorganisms (oral bacteria): showed an inhibitory activity on several microorganisms; MIC (Candida albicans): 250 µg/mL (≈ 1660 µM); MIC [1]: 125 µg/mL (≈ 832 µM); MIC (Steptococcus mutans): 125 µg/mL (≈ 832 µM); MIC [2]: 125 µg/mL (≈ 832 µM); MIC (Aspergillus niger): 250 µg/mL (≈ 1660 µM); MIC (Escherichia coli): 500 µg/mL (≈ 3330 µM); MIC (Actinomyces neaslundii): 125 µg/mL (≈ 832 µM); MIC (Pseudomonas aeruginosa): > 1000 µg/mL; MIC (Staphylococcus aureus): 125 µg/mL (≈ 832 µM); MIC (Corynebacterium xerosis): 125 µg/mL (≈ 832 µM); MIC (Propionibacterium acnes): 125 µg/mL (≈ 832 µM); antimicrobial activity in several in vitro methods [3]: broad spectrum activity |
|  |  |  |  |  |  |  |  |  |  |  | O=CC=Cc1ccccc1 [cinnamaldehyde] | inhibitory activity on several microorganisms (oral bacteria): showed an inhibitory activity on several microorganisms; antimicrobial activity in several in vitro methods [3]: broad spectrum activity |
|  |  |  |  |  |  |  |  |  |  |  | C=CCc1ccc(O)c(OC)c1 [eugenol] | inhibitory activity on several microorganisms (oral bacteria): showed an inhibitory activity on several microorganisms |

| Structure (SMILES) | MIC (Candida albicans; [4]) | MIC [1, 5] | MIC (Steptococcus mutans; S. mutans strain 25175, gram+) | MIC [2, 6] | MIC (Aspergillus niger; A. niger strain 16404, fungi) | MIC (Escherichia coli; E. coli strain 11229, gram -) | MIC (Actinomyces neaslundii; [7]) | MIC (Pseudomonas aeruginosa; [8]) | MIC (Staphylococcus aureus; S. aureus strain 6535, gram+) | MIC (Corynebacterium xerosis; C. xerosis strain 373, gram+) | MIC (Propionibacterium acnes; P. acnes strain 6919, gram+) | further results |
| --- | --- | --- | --- | --- | --- | --- | --- | --- | --- | --- | --- | --- |
| Cc1ccc(C(C)C)c(O)c1 [Thymol, thymol, reference compound] | 250 µg/mL (≈ 1660 µM) | 125 µg/mL (≈ 832 µM) | 250 µg/mL (≈ 1660 µM) | 250 µg/mL (≈ 1660 µM) | 125 µg/mL (≈ 832 µM) | 250 µg/mL (≈ 1660 µM) | 125 µg/mL (≈ 832 µM) | > 1000 µg/mL | 250 µg/mL (≈ 1660 µM) | 250 µg/mL (≈ 1660 µM) | 125 µg/mL (≈ 832 µM) | inhibitory activity on several microorganisms (oral bacteria): showed an inhibitory activity on several microorganisms; antimicrobial activity in several in vitro methods [3]: broad spectrum activity |

Reference: patent US6110888A, “Substituted phenols as fragrance, flavor and antimicrobial compounds” (Takasago International Corporation, priority 1999, dated 2000)
